The values that follow come from the supplement of paper PMC10307832.

Common to all, as to assay: relative viability (nuclei count vs DMSO), 5 days (fraction); higher = more cells survive
Compound in the test “Salubrinal + Olaparib”: O=C(/C=C/c1ccccc1)NC(NC(=S)Nc1cccc2cccnc12)C(Cl)(Cl)Cl [Salubrinal] + O=C(c1cc(Cc2n[nH]c(=O)c3ccccc23)ccc1F)N1CCN(C(=O)C2CC2)CC1 [Olaparib] (partner 8 µM)
A digest of the protocol:
(§1)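 Each reported value is a median over duplicate plates. It expresses relative viability: treated-well nuclei count divided by vehicle-well nuclei count. Lung cancer cell lines in 1536-well plates were dosed by pin tool a day after seeding, alone with one drug or with a fixed anchor-drug dose plus five library-drug doses (not always all listed) in √10 steps, and nuclei were counted after 5 days.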

Compound in test [1]: Cc1ccc2nc(NCCN)c3ncc(C)n3c2c1 + CC1(C)CCC(c2ccc(Cl)cc2)=C(CN2CCN(c3ccc(C(=O)NS(=O)(=O)c4ccc(N[C@H](CCN5CCOCC5)CSc5ccccc5)c(S(=O)(=O)C(F)(F)F)c4)cc3)CC2)C1 [Navitoclax] (partner 0.5 µM)
An outline of the steps:
as §1

Compound in the test “Salubrinal + Crizotinib”: O=C(/C=C/c1ccccc1)NC(NC(=S)Nc1cccc2cccnc12)C(Cl)(Cl)Cl [Salubrinal] + C[C@@H](Oc1cc(-c2cnn(C3CCNCC3)c2)cnc1N)c1c(Cl)ccc(F)c1Cl [Crizotinib] (partner 1 µM)
A digest of the protocol:
as §1

Compound in test [2]: Cc1ccc2nc(NCCN)c3ncc(C)n3c2c1 + O=C(c1cc(Cc2n[nH]c(=O)c3ccccc23)ccc1F)N1CCN(C(=O)C2CC2)CC1 [Olaparib] (partner 8 µM)
An outline of the steps: as §1

Take UMC-11: the relative viability with Salubrinal + Olaparib (first compound 0.08 µM) came to 0.355; in the test with Salubrinal + Olaparib (first compound 0.253 µM) it was 0.368; in the test with Salubrinal + Olaparib (first compound 0.8 µM), 0.386; with Salubrinal + Olaparib (first compound 2.53 µM) it was 0.337; in the test with Salubrinal + Olaparib (first compound 8 µM), 0.393; in test [1] (first compound 0.04 µM), 0.315. In addition, the relative viability in test [1] (first compound 0.1265 µM) is 0.342; in test [1] (first compound 0.4 µM) it was 0.33; in test [1] (first compound 1.265 µM), 0.324; in test [1] (first compound 4 µM), 0.365; with Salubrinal + Crizotinib (first compound 0.08 µM), 0.577; with Salubrinal + Crizotinib (first compound 0.253 µM), 0.54. The relative viability came out at 0.586 in the test with Salubrinal + Crizotinib (first compound 0.8 µM); 0.578 with Salubrinal + Crizotinib (first compound 2.53 µM); 0.599 in the test with Salubrinal + Crizotinib (first compound 8 µM); 0.376 in test [2] (first compound 0.04 µM); 0.355 in test [2] (first compound 0.1265 µM); 0.388 in test [2] (first compound 0.4 µM). Also, the results for the relative viability in test [2] (first compound 1.265 µM) and in test [2] (first compound 4 µM) were 0.35 and 0.301, respectively.
